Measured values taken from patent publication US10226477B2, “Composition for preventing, improving or treating postmenopausal osteoporosis comprising scopolin” (DONG WOO DANG CO., LTD, priority 2016, dated 2019).
“Also recorded” adds a separate entry of the source.

What was measured:
[1] = test system: ddY female ovariectomized (OVX)-mouse; assay: Bone mineral density (PIXImus) and femoral micro-CT in ovariectomized menopausal mouse model; format: in vivo; conditions: oral, 12 weeks, scopolin 20 and 40 mg/kg/day, SrCl2 20 mg/kg/day; for decrease in the bone mineral density caused by the menopause: p<0.05 vs. OVX
Experimental: (§1) To evaluate in vivo efficacy of scopolin, a 10-week-old ddY female ovariectomized (OVX)-mouse was used a menopausal animal model (ovariectomy was performed on the 8-week-old mouse, and the mouse was additionally raised for 2 weeks). Regarding control groups, a Shame mouse that was subjected to laparotomy, but was not subjected to ovariectomy, (normal control group), and an OVX mouse to which physiological saline was added (negative control group) were used, and in addition, a strontium chloride (SrCl2) mouse in which 20 mg/kg/day of SrCl2, which is a compound having an effect in enhancing bone mineral density, was administered by oral injection to an OVX mouse was used as a positive control group in the test for bone mineral density improvement efficacy. Here, an experimental group was prepared by administering scopolin at a dose of 20 mg/kg/day and 40 mg/kg/day by oral injection. The 10-week-old sham-operated mouse and the ddY OVX-mouse were purchased at Central Lab. Animal Inc., and then, were moved to a clean animal breeding room after spending 1 week of purification period in the laboratory animal quarantine room. These mice were individually weighed to be classified into experimental groups without a statistically significant difference in weight. Scopolin used in the experiment was dissolved in 1% DMSO aqueous solution to be prepared as a test solution. In order to bring these mice in the laboratory animal center, a radiation irradiation company, SOYAGREENTEC Inc., was commissioned for sterilization operations using gamma irradiation.
At the beginning of the animal experiment, a PIXImus bone densitometer was used to measure initial bone mineral density (BMD) of the mice. The mice were anesthetized by injecting 50 μl of a mixed anesthetic of zoletil and rompun (a mixture of zoletil and rompun at a ratio of 1:2 was diluted with physiological saline at a ratio of 2:3), and then, were fixed to a bone mineral density measuring frame to measure bone mineral density. After 6 weeks and 12 weeks of the injection of scopolin to the mice, the bone mineral density of the mice was measured by using the PIXImus bone densitometer. After the completion of the experiment during 12 weeks, blood sampling and removal of femoral bone were performed, and micro-CT was taken thereon. In the micro-CT images, bone volume ratios (BV ratios, %), trabecular thickness (Tb.Th), trabecular number (Tb.N), and trabecular spacing (Tb.Sp) were numeralized and analyzed.

[2] = test system: ddY female ovariectomized (OVX)-mouse; assay: Serum OPG and RANKL levels by ELISA in ovariectomized menopausal mouse model; format: in vivo; conditions: oral, 12 weeks, scopolin 20 and 40 mg/kg/day, SrCl2 20 mg/kg/day; for decrease in the serum level of OPG (bone formation marker) / increase in the serum level of RANKL (bone resorption marker): p<0.05 vs. OVX
Experimental: as §1
Next, the changes of blood metabolism markers in the blood were examined. After 12 weeks of the experiment performed on the postmenopausal mouse model, the blood sampling was performed thereon, and serum samples were collected therefrom. The serum protein levels of osteoprotegerin (OPG), which is a bone formation marker, and receptor activator of nuclear factor-kappa B ligand (RANKL), which is a bone resorption marker, were analyzed by ELISA. […] However, in the experimental groups to which scopolin was administered at a dose of 20 mg/kg/day and 40 mg/kg/day for 12 weeks, it was confirmed that the decrease in the level of OPG, which is the bone formation marker in the blood, the increase in the level of RANKL, which is the bone resorption marker, and the decrease in the OPG/RANKL ratios were inhibited (see FIGS. 9A, 9B, and 9C). Such results were similar with those obtained by the SrCl2 mouse which is the positive control group. In addition, in the statistical analysis, the significance of the efficacy of scopolin was also confirmed (*: p<0.05 vs. OVX negative control group).

[3] = test system: MC3T3-E1 cells; assay: Osteoblast differentiation: ALP staining; format: cell-based; conditions: 5 μg/ml
[4] = test system: MC3T3-E1 cells; assay: Osteoblast differentiation: alkaline phosphatase (ALP) activity; format: cell-based
Experimental: The efficacy of scopolin on the differentiation of osteoblasts was evaluated by using the MC3T3-E1 cells. Ascorbic acid (50 μg/ml) and β-glycerophosphate (10 mM), which are osteoblast inducers, were added to the MC3T3-E1 cells, to thereby induce the differentiation for 3 days. Then, the resulting cells were treated with scopolin. Scopolin was dissolved in 1% dimethyl sulfoxide (DMSO) aqueous solution, and then, was applied to the MC3T3-E1 cells at concentrations of 1 μg/ml (Sco1), 5 μg/ml (Sco5), and 10 μg/ml (Sco10). The resulting cells were cultured for additional 48 hours. As a control group, cells were cultured in the same amount of 1% DMSO aqueous solution in which scopolin was not treated. To determine the efficacy of scopolin on the differentiation of osteoblasts, the activity of alkaline phosphatase (ALP) was measured. In detail, the cells that were washed using physiological saline and dissolved using a lytic agent was treated with p-nitrophenyl phosphate, which is a substrate of ALP, and then, cultured at a temperature of 37° C. for 1 hour. Subsequently, 0.5N NaOH, which is a reaction terminating solution, was added the cultured cells, and then, absorbance thereof was measured at a wavelength of 405 nm.

[5] = test system: MC3T3-E1 cells; assay: Mineralization of osteoblasts by Alizarin Red S staining; format: cell-based; conditions: 5 μg/ml
Experimental: The mineralization of osteoblasts was analyzed by an Alizarlin red S staining method after experimental groups and a control group were each treated with 5 μg/ml of scopolin and cultured. […] That is, it was confirmed that scopolin was effective in stimulating the differentiation of osteoblasts.

[6] = test system: MC3T3-E1 cells; assay: Cytotoxicity of scopolin by cell proliferation analysis (EZ-Cytox, water-soluble tetrazolium salt); format: cell-based; conditions: 1 μg/ml, 5 μg/ml and 10 μg/ml, cultured 2 days, vs. physiological saline control
Experimental: Cytotoxicity of scopolin was evaluated by cell proliferation analysis using an EZ-Cytox Enhanced Cell Viability Assay Kit using a water-soluble tetrazolium salt. In detail, MC3T3-E1 cells (3×10^3 cells/well), which are osteoblasts, were cultured in an alpha-minimum essential medium (α-MEM) supplemented with 10% bovine fetus serum, 1 mM sodium pyruvate, 100 unit/L penicillin, and 100 mg/L streptomycin at a temperature of 37° C. under conditions provided with 5% CO2, and then, the cells were treated with scopolin at three different concentrations (1 μg/ml, 5 μg/ml, and 10 μg/ml) and cultured for 2 days. Next, the tetrazolium salt was applied to each of the cultured cells and a sample, followed by being cultured at a temperature of 37° C. for 2 hours, and then, absorbance thereof was measured at a wavelength of 450 nm.

| SMILES | increase in trabecular spacing (Tb.Sp) [1] | low density of the bone structure (micro-CT images) [1] | reduction in BV ratios (bone volume ratio) [1] | reduction in trabecular number (Tb.N) [1] | reduction in trabecular thickness (Tb.Th) [1] | decrease in the bone mineral density caused by the menopause [1] | decrease in the OPG/RANKL ratios [2] | decrease in the serum level of OPG (bone formation marker) [2] | increase in the serum level of RANKL (bone resorption marker) [2] | ALP staining [3] | differentiation of osteoblasts (ALP activity) ([4]; 5 μg/ml or 10 μg/ml, 48 hours after 3 days induction, p<0.05 vs. negative control) | stimulating osteoblast differentiation (overall conclusion) ([4]; MC3T3-E1 cells, 1-10 μg/ml) | mineralization (Alizarin Red S staining) [5] | effect on the proliferation of the MC3T3-E1 cells (cytotoxicity) [6] |
| --- | --- | --- | --- | --- | --- | --- | --- | --- | --- | --- | --- | --- | --- | --- |
| [Cl-].[Cl-].[Sr+2] [SrCl2, strontium chloride, reference compound] | similar | similar | similar | similar | similar | similar | similar | similar | similar | – | – | – | – | – |
| COc1cc2ccc(=O)oc2cc1O[C@@H]1O[C@H](CO)[C@@H](O)[C@H](O)[C@H]1O [scopolin] | inhibited | significantly inhibits; also recorded: inhibited | inhibited | inhibited | inhibited | significantly inhibits; also recorded: inhibited | inhibited | significantly inhibits; also recorded: inhibited | significantly inhibits; also recorded: inhibited | increased | statistically significantly increased | significant effect; also recorded: effective | increased | not toxic; also recorded: no adverse effect |
